This data set concerns RAW 264.7 cells. In words: Hydride Meisenheimer complex (HMC) formation propensity assay, whole cell. Format: in vitro ADME, murine. The following applies: whole cell in vitro assay, relative to BTZ-043 (1). The text has this: As the main goal of our work, we focused on the impact of C-6 substituents on the propensity to form HMC in our recently developed whole cell in vitro assay. Following our standardized protocol, all measurements were normalized relative to BTZ-043 (1). Obtained HMC formation propensities (Table S5) were transformed into their negative decadic logarithm (pHMC) to ease data visualization and subsequent processing during chemoinformatics investigations (Fig. 5). […] In the case of esters, a plausible pattern according to the substituent size was observed. […] Similarly, dimethyl amide 7c and nitrile 9 produced a 14- and 12-fold larger ratio of HMC compared to 1, respectively. Esters 6a–e and oxazoline 7e were also more prone to HMC formation than 1, albeit to a considerably lesser extent (2.5–6-fold).
3. Hydride Meisenheimer complex formation propensity assay
The assay was performed as described previously. 6
RAW 264.7 cell cultivation […]
Samples were analyzed with a Thermo Vanquish Horizon UHPLC system (Thermo Fisher Scientific, Bremen, Germany) coupled to a Thermo Scientific QExactive Orbitrap mass spectrometer (Thermo Fisher Scientific, Bremen, Germany) by using a UPLC column (ACQUITY HSS T3, Waters, 1.8 µm particle size, 2.1 × 50 mm). […]

As for `C[C@H]1COC2(CCN(c3nc(=O)c4cc(C(=O)O)cc([N+](=O)[O-])c4s3)CC2)O1` [Compound 8], the “HMC formation (in words)” value is “Traces”.

With `C[C@H]1COC2(CCN(c3nc(=O)c4cccc([N+](=O)[O-])c4s3)CC2)O1` [Compound 23], the “HMC formation (in words)” value is on record as “no detectable HMC formation”.

For the origin of these results see article PMC11227536, “Modulation of the Meisenheimer complex metabolism of nitro-benzothiazinones by targeted C-6 substitution” (Communications Chemistry, 2024).
